Earlier results on 2 compounds are cited in patent US12377108B2 (Curantis UG, priority 2018, dated 2025).

A value given as a limit tells only on which side of the number the result lay.

The conditions of data set [1]: of the activity of Δ9-THC.
The conditions of data set [2]: oral administration; first pass hepatic metabolism.

Take `CCCCCc1cc(O)c2c(c1)OC(C)(C)c1ccc(C)cc1-2` [CBN, Cannabinol]: the “activity relative to Δ9-THC” value in data set [1] was 10%. For `C=C(C)[C@@H]1CCC(C)=C[C@H]1c1c(O)cc(CCCCC)cc1O` [CBD, Cannabidiol], the oral bioavailability in data set [2] is less than 5%.
